Assay results taken from the NIST ThermoML archive (doi:10.1021/je900978x).

Conditions: Fluid (supercritical or subcritical phases), Buoyancy - hydrostatic balance with magnetic suspension - one sinker

CC [ethane]
Conditions | mass density [kg/m3]
298.15 K, 2000 kPa | 29.226
298.15 K, 5987 kPa | 352.999
298.15 K, 7909 kPa | 371.593
298.15 K, 10071 kPa | 385.867
298.15 K, 14959 kPa | 407.911
298.15 K, 20004 kPa | 423.934
298.15 K, 24927 kPa | 436.235
298.15 K, 29893 kPa | 446.599
298.15 K, 35020 kPa | 455.82
298.15 K, 39905 kPa | 463.582
298.15 K, 49977 kPa | 477.362
298.15 K, 75091 kPa | 503.592
298.15 K, 99827 kPa | 523.125
298.15 K, 119760 kPa | 536.225
298.15 K, 149807 kPa | 552.995
350 K, 1999 kPa | 22.819
350 K, 29974 kPa | 384.889
350 K, 49928 kPa | 430.315
350 K, 74959 kPa | 464.696
350 K, 100019 kPa | 489.111
350 K, 124863 kPa | 508.192
350 K, 149906 kPa | 524.195
350 K, 172157 kPa | 536.528
400 K, 805 kPa | 7.452
400 K, 7325 kPa | 84.481
400 K, 27286 kPa | 311.921
400 K, 48575 kPa | 383.533
400 K, 69346 kPa | 421.214
400 K, 92289 kPa | 450.02
400 K, 117459 kPa | 473.901
400 K, 139686 kPa | 491.026
400 K, 154657 kPa | 501.119
400 K, 166558 kPa | 508.474
400 K, 181565 kPa | 517.111
400 K, 196062 kPa | 524.823
450 K, 1998 kPa | 16.685
450 K, 5021 kPa | 44.467
450 K, 10001 kPa | 96.599
450 K, 20005 kPa | 202.282
450 K, 30018 kPa | 272.417
450 K, 49974 kPa | 346.238
450 K, 69967 kPa | 388.105
450 K, 79928 kPa | 403.693
450 K, 99962 kPa | 429.113
450 K, 119860 kPa | 449.29
450 K, 139478 kPa | 465.963
